Experimental data from ChEMBL document CHEMBL1126767, “Three-dimensional quantitative structure-activity relationship of angiotesin-converting enzyme and thermolysin inhibitors. II. A comparison of CoMFA models incorporating molecular orbital fields and desolvation free energies based on active-analog and complementary-receptor-field alignment rules” (J Med Chem, 1993).
Peptide text beside a SMILES is read from it.

How the values were obtained:
[1] = target: T1, Angiotensin-converting enzyme (Rattus norvegicus, UniProt P47820); assay: Inhibitory activity against angiotensin converting enzyme (ACE); Activity is for a diastereomeric or racemic mixture; format: functional
T1 sequence (P47820 whole entry): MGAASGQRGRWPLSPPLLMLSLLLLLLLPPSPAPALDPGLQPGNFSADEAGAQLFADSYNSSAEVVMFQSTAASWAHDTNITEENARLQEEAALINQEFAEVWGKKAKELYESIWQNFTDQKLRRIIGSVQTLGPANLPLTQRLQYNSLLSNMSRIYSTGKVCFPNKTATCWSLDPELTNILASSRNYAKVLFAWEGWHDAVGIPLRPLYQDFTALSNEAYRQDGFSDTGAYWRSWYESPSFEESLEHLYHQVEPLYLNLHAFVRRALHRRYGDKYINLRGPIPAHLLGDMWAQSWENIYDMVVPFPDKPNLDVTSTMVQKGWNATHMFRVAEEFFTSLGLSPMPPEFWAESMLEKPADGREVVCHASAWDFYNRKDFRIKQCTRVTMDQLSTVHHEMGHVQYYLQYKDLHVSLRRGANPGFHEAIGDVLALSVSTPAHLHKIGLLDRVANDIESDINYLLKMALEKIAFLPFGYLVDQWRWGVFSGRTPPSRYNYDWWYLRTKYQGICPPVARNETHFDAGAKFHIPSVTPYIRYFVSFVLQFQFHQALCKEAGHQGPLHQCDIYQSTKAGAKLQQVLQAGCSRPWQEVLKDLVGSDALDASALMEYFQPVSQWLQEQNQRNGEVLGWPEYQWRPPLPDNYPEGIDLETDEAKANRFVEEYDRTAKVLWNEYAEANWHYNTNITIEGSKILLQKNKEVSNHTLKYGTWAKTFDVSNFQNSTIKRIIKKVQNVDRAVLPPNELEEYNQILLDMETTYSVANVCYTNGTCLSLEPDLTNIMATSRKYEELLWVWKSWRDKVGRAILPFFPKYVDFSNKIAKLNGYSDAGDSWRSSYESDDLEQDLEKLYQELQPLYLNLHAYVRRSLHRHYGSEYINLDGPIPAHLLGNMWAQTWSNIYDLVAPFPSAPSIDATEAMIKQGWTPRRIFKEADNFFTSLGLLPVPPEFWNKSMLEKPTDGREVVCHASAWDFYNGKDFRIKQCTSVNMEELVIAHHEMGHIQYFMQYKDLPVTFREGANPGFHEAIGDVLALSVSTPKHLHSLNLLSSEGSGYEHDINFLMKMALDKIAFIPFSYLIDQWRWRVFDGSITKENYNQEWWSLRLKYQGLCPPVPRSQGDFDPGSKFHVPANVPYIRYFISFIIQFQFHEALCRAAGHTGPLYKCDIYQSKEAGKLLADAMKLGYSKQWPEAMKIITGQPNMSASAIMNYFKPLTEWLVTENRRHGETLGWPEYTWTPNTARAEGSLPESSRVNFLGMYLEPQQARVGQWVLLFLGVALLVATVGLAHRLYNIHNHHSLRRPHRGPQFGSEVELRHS

[2] = target: Angiotensin-converting enzyme (Homo sapiens, UniProt P12821); assay: Inhibitory activity against angiotensin converting enzyme (ACE); format: functional

SMILES	IC50 [1]	IC50 [2]
CC(S)C(=O)N[C@@H](Cc1c[nH]c2ccccc12)C(=O)O (stereo in doubt; form 1)		0.363 µM
CC(S)C(=O)N[C@@H](Cc1c[nH]c2ccccc12)C(=O)O (stereo in doubt; form 2)		0.0646 µM
CC(S)C(=O)N[C@@H](CS)C(=O)O (stereo in doubt; form 2)		7.94 µM
O=C(CCS)N[C@@H](Cc1c[nH]c2ccccc12)C(=O)O (stereo in doubt; form 2)		4.57 µM
NCC(=O)N1CCC[C@H]1C(=O)O [GLYCYL PROLINE] (H-Gly-Pro-OH)		447 µM

More lines, now with the values ahead:

IC50 [1]	IC50 [2]	SMILES
0.00776 µM		C[C@H](NC(C(=O)O)C(Cc1ccccc1)NC(=O)c1ccccc1)C(=O)N1CCC[C@H]1C(=O)O (stereo not given in full)
	537 µM	CC(S)C(=O)N[C@@H](CS)C(=O)O (stereo in doubt; form 1)
	> 1000 µM	O=C(CCS)N[C@@H](Cc1c[nH]c2ccccc12)C(=O)O (stereo in doubt; form 1)
	7240 µM	CC(C)(S)C(=O)N[C@@H](CS)C(=O)O [BUCILLAMINE]
	0.0363 µM	NCCCC[C@H](OP(=O)(O)CCCCc1ccccc1)C(=O)N1CCC[C@H]1C(=O)O [CERONAPRIL]
